Assay results from US20220281931A1, “CHEMICALLY INDUCIBLE POLYPEPTIDE POLYMERIZATION” (Dana-Farber Cancer Institute, Inc., priority 2019, published 2022).

Experiments:
[1] = molecular target: T1, StrepBCL6^5-360 / full length SIAH1 (Homo sapiens, UniProt P41182); assay: In vitro ubiquitination of BCL6 by SIAH1; type: biochemical; conditions: recombinant polypeptides, 1 μM BI-3802 vs DMSO
T1 construct: using Strep II-Avi-BCL6^5-360 and Flag-SIAH1^FL; made in house; host or cells: Trichoplusia ni High Five insect cells, baculovirus
Description: In vitro ubiquitination for identification of compatible E2 conjugating enzymes was performed by following the manufacturer's instructions (K-982, Boston Biochem), using Strep II-Avi-BCL6^5-360 and Flag-SIAH1^FL. Time-course in vitro ubiquitination was performed by mixing the substrate (BCL6, 2 μM), E3 (SIAH, 0.5 μM), E1 (UBA1, Boston Biochem, 0.2 μM, E2 (UBE2D1, Boston Biochem, 0.5 μM), and ubiquitin (Boston Biochem, 50 μM), with a reaction buffer (B-71, Boston Biochem) containing BI-3802 or DMSO (normalized to 1% DMSO) in 15 μL volume each. Reactions were initiated by adding 5 μL of Mg-ATP solution (B-20, Boston Biochem), incubated for up to 60 min at 37° C., and analyzed by western blot using Strep tag II Antibody HRP conjugate (71591-3, Sigma) at 1:4,000. 0.8×10^6 cells/mL SuDHL4 cells were treated with DMSO or 0.5 μM E1 Inhibitor (3 h)+1 μM BI-3802 (I h) and 200 μL of the cell suspension was immobilized on a slide using the Cytospin™ 4 Cytocentrifuge (CytoSpin 4, A78300003; 6000 rpm, 6 min). Medium was aspirated and cells were fixed with 4% formaldehyde diluted in warm PBS for 15 min at room temperature. Slides were washed three times for 5 min with PBS, blocked and permeabilized with blocking solution (5% Normal Goat Serum (Cell Signaling), 0.3% Triton X-100 in PBS) for 60 min and stained with anti-BCL6 antibody in blocking solution overnight at 4° C. […]

[2] = molecular target: T2, eGFPBCL6^1-275 and V5SIAH1 (Homo sapiens, UniProt P41182); assay: Immunofluorescence of SIAH1 and BCL6 foci in HEK293T cells; type: cell-based; conditions: HEK293TCas9 cells, 0.5 μM MLN7243 pre-treatment 2 hours, 1 μM BI-3802 1 hour
T2 construct: expressed in transfected cells; host or cells: HEK293TCas9 cells, lentiviral transduction
Description: HEK293TCas9 cells expressing eGFPBCL6^250 and eGFPBCL6^275 constructs were transduced with V5SIAH1^C44S (infection rate >70%). […] The cells were fixed with 4% formaldehyde for 15 min and permeabilized with 0.1% Triton X100 for 30 min. Epitopes were blocked with 10% BSA for 10 min. Anti-V5 antibodies were added and incubated on slides overnight at 4° C. After removal of the primary antibodies and washes, Alexa Fluor 633-conjugated anti-mouse antibodies were added and incubated at room temperature for 45 min. Finally, the slides were stained with DAPI (BD Biosciences, #564907, 1:5,000 in H2O) and mounted with SlowFader™ Diamond Antifade Mountant (Thermo Fisher Scientific, S36963). Cells were imaged with the Leica TCS SP5 confocal microscope.

BCL6 = molecular target: T3, BCL6 (Homo sapiens, UniProt P41182); assay: Cellular fractionation and immunoblot of BCL6; type: cell-based; conditions: SuDHL4 cells, 1 μM, 24 hours
T3 construct: endogenous in cells; host or cells: SuDHL4 / SuDHL4Cas9 cells
Description: 1×10^6 SuDHL4Cas9 cells were treated with DMSO or 1 μM BI-3802 for 24 h and fractionated using the CelLytic™NuCLEAR™Extraction Kit (Sigma-Aldrich) according to the manufacturer's protocol, resolved on a polyacrylamide gel, and immunoblotted for the indicated targets.

BCL6^5-360 - SIAH1^SBD = molecular target: T4, BCL6^5-360 - SIAH1^SBD (Homo sapiens, UniProt P41182); assay: BCL6-SIAH1 TR-FRET; type: biochemical; conditions: preassembled 0.2 μM BodipyBCL6^5-360 and 0.2 μM BiotinSIAH1^SBD, in vitro; read-out: EC50 for increase of the BCL6-SIAH1 interaction
T4 construct: 200 nM BodipyFL-labeled BCL6^5-360 variants; His6 (N); Spy (C); made in house; host or cells: Trichoplusia ni High Five insect cells, baculovirus
Description: After dispensing the assay mixture (15 μL volume), increasing concentrations of compounds were dispensed in a 384-well microplate (Corning, 4514) using a D300e Digital Dispenser (HP) normalized to 1% DMSO. After excitation of terbium fluorescence at 337 nm, emission at 490 nm (terbium) and 520 nm (BodipyFL) were recorded with a 70 us delay over 600 μs to reduce background fluorescence, and the reaction was followed over 60 cycles of each data point using a PHERAstar FS microplate reader (BMG Labtech). The TR-FRET signal of each data point was extracted by calculating the 520/490 nm ratio. The half-maximal effective concentration (EC50) values were estimated using dose-response analysis standard four parameter log-logistic curves, fitted to the experimental data using […] package. […] After dispensing the assay mixture, increasing concentration of BodipyFL-BCL6^5-360 was added to the SIAH1 mixture in a […] (7.5 μL each, total 15 μL assay volume). The 520/490 nm ratios were measured in as described above and plotted to calculate the KD^APP values using dose-response analysis standard four parameter log-logistic curves using […] package.

SuDHL4Cas9 cells = assay: Whole proteome quantification using tandem mass tag mass spectrometry; type: cell-based, human; conditions: SuDHL4 cells, 1 μM compound, 4 hours
Description: 10×10^6 SuDHL4Cas9 cells were treated with DMSO, 1 μM BI-3802 or 1 μM BI-3812 for 1 h or 4 h in triplicates and cells were harvested by centrifugation. Samples were processed, measured and analyzed as previously described (Donovan, K. A. et al. Thalidomide promotes degradation of SALL4, a transcription factor implicated in Duane Radial Ray syndrome. Ehfe 7, doi:10.7554/eLife.38430 (2018)). Data are available in the PRIDE repository (PXD016185).

lymphoma cells = conditions: cited from earlier work

## CNC(=O)COc1cc2cc(Nc3nc(N4C[C@H](C)C[C@H](C)C4)ncc3Cl)ccc2n(C)c1=O [BI-3802, 2-((6-((5-chloro-2-((3S,5R)-3,5-dimethylpiperidin-1-yl)pyrimidin-4-yl)amino)-1-methyl-2-oxo-1,2-dihydroquinolin-3-yl)oxy)-N-methylacetamide]
[1]
  rate and magnitude of BCL6 ubiquitination by SIAH1: accelerated
[2]
  SIAH1 colocalization to BCL6 foci: SIAH1 colocalized to BCL6 foci in a V×P motif dependent manner
BCL6
  chromatin-bound BCL6 level: efficiently depleted chromatin-bound BCL6
BCL6^5-360 - SIAH1^SBD
  EC50: 64 nM
SuDHL4Cas9 cells
  change in polypeptide abundance (whole proteome): BCL6 was the only polypeptide with significantly decreased abundance
Lymphoma cells
  activity against lymphoma cells compared to BI-3812: markedly increased activity against lymphoma cells
